Test results published in US9708314B2, “Heterocyclic amide compound” (NISSAN CHEMICAL INDUSTRIES, LTD., priority 2013, dated 2017).

Assays:
Assay type in all cases: in vivo
[1] = test system: Lolium multiflorum Lam.; assay: Test Example 4: herbicidal effect by application to foliage (diluvial soil, plastic box); conditions: for K (Lolium multiflorum Lam.) herbicidal effect grade: Application herbicide amount 320 g/ha, foliage application; for K: herbicidal effect on Lolium multiflorum Lam.: application to foliage, application herbicide amount 320 g/ha
How it was run: (§1)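 Scores run from 0 (herbicidal ratio ≤5%) to 5 (≥90%, almost fully withered) and were assessed three weeks after foliar spraying. Seedlings had been raised for 14 days at 25-30° C in sterilized diluvial soil before treatment, with the emulsion diluted in water to the stated g/ha dose.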

[2] = test system: Digitaria ciliaris; assay: as above; conditions: for F (Digitaria ciliaris) herbicidal effect grade: Application herbicide amount 320 g/ha, foliage application; for F: herbicidal effect on Digitaria ciliaris: application to foliage, application herbicide amount 320 g/ha
How it was run: as §1

[3] = test system: Galium spurium; assay: as above; conditions: for Q (Galium spurium) herbicidal effect grade: Application herbicide amount 320 g/ha, foliage application; for Q: herbicidal effect on Galium spurium: application to foliage, application herbicide amount 320 g/ha
How it was run: as §1

[4] = test system: Abutilon theophrasti; assay: as above; conditions: for M (Abutilon theophrasti) herbicidal effect grade: Application herbicide amount 320 g/ha, foliage application; for M: herbicidal effect on Abutilon theophrasti: application to foliage, application herbicide amount 320 g/ha
How it was run: as §1

[5] = test system: Echinochloa crus-galli var. crus-galli; assay: as above; conditions: for H (Echinochloa crus-galli var. crus-galli) herbicidal effect grade: Application herbicide amount 320 g/ha, foliage application; for H: herbicidal effect on Echinochloa crus-galli var. crus-galli: application to foliage, application herbicide amount 320 g/ha
How it was run: as §1

[6] = test system: Avena fatua; assay: as above; conditions: for I (Avena fatua) herbicidal effect grade: Application herbicide amount 320 g/ha, foliage application; for I: herbicidal effect on Avena fatua: application to foliage, application herbicide amount 320 g/ha
How it was run: as §1

[7] = test system: Chenopodium album; assay: as above; conditions: for O (Chenopodium album) herbicidal effect grade: Application herbicide amount 320 g/ha, foliage application; for O: herbicidal effect on Chenopodium album: application to foliage, application herbicide amount 320 g/ha
How it was run: as §1

[8] = test system: Alopecurus myosuroides; assay: as above; conditions: for J (Alopecurus myosuroides) herbicidal effect grade: Application herbicide amount 320 g/ha, foliage application; for J: herbicidal effect on Alopecurus myosuroides: application to foliage, application herbicide amount 320 g/ha
How it was run: as §1

[9] = test system: Setaria viridis; assay: as above; conditions: for G (Setaria viridis) herbicidal effect grade: Application herbicide amount 320 g/ha, foliage application; for G: herbicidal effect on Setaria viridis: application to foliage, application herbicide amount 320 g/ha
How it was run: as §1

[10] = test system: Veronica persica; assay: as above; conditions: for R (Veronica persica) herbicidal effect grade: Application herbicide amount 320 g/ha, foliage application; for R: herbicidal effect on Veronica persica: application to foliage, application herbicide amount 320 g/ha
How it was run: as §1

[11] = test system: Apera spica-venti.; assay: as above; conditions: for L (Apera spica-venti.) herbicidal effect grade: Application herbicide amount 320 g/ha, foliage application; for L: herbicidal effect on Apera spica-venti.: application to foliage, application herbicide amount 320 g/ha
How it was run: as §1

[12] = test system: Amaranthus retroflexus; assay: as above; conditions: for N (Amaranthus retroflexus) herbicidal effect grade: Application herbicide amount 320 g/ha, foliage application; for N: herbicidal effect on Amaranthus retroflexus: application to foliage, application herbicide amount 320 g/ha
How it was run: as §1

[13] = test system: Echinochloa oryzacola Vasing.; assay: Test Example 2: herbicidal activity, application during weed generation in submerged conditions; conditions: Eighteenth Table; application herbicide amount 320 g/ha
How it was run: (§2)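 Alluvial soil in Wagner pots flooded to 4 cm water depth; seeds sown mixed, grown in greenhouse at 25–30 °C. At one- to two-leaf stage, emulsion diluted with water to the set rate (g/ha) was applied to the water surface. Effect scored 0–5 by herbicidal ratio three weeks later.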

[14] = test system: Scirpus juncoides; assay: as above; conditions: Eighteenth Table; application herbicide amount 320 g/ha
How it was run: as §2

[15] = test system: Monochoria vaginalis; assay: as above; conditions: Eighteenth Table; application herbicide amount 320 g/ha
How it was run: as §2

| Structure (SMILES) | K (Lolium multiflorum Lam.) herbicidal effect grade [1] | F (Digitaria ciliaris) herbicidal effect grade [2] | Q (Galium spurium) herbicidal effect grade [3] | M (Abutilon theophrasti) herbicidal effect grade [4] | H (Echinochloa crus-galli var. crus-galli) herbicidal effect grade [5] | I (Avena fatua) herbicidal effect grade [6] | O (Chenopodium album) herbicidal effect grade [7] | J (Alopecurus myosuroides) herbicidal effect grade [8] | G (Setaria viridis) herbicidal effect grade [9] | R (Veronica persica) herbicidal effect grade [10] | L (Apera spica-venti.) herbicidal effect grade [11] | N (Amaranthus retroflexus) herbicidal effect grade [12] | A (Echinochloa oryzicola Vasing.) herbicidal ratio grade [13] | B (Scirpus juncoides) herbicidal ratio grade [14] | C (Monochoria vaginalis) herbicidal ratio grade [15] | K: herbicidal effect on Lolium multiflorum Lam. [1] | F: herbicidal effect on Digitaria ciliaris [2] | Q: herbicidal effect on Galium spurium [3] | M: herbicidal effect on Abutilon theophrasti [4] | H: herbicidal effect on Echinochloa crus-galli var. crus-galli [5] | other results |
| --- | --- | --- | --- | --- | --- | --- | --- | --- | --- | --- | --- | --- | --- | --- | --- | --- | --- | --- | --- | --- | --- |
| CCN(CC)c1nnc2c(C(=O)Nc3nnc(C)o3)ccc(C(F)(F)F)n12 [1-135] | 1 (Herbicidal ratio of 5% or more and less than 20%) | 4 (Herbicidal ratio of 70% or more and less than 90%) | 0 (Herbicidal ratio of 5% or less (almost no effect)) | 3 (Herbicidal ratio of 40% or more and less than 70%) | 4 (Herbicidal ratio of 70% or more and less than 90%) | 1 (Herbicidal ratio of 5% or more and less than 20%) | 5 (Herbicidal ratio of 90% or more (almost completely withered)) | 1 (Herbicidal ratio of 5% or more and less than 20%) | 3 (Herbicidal ratio of 40% or more and less than 70%) | 1 (Herbicidal ratio of 5% or more and less than 20%) | 1 (Herbicidal ratio of 5% or more and less than 20%) | 3 (Herbicidal ratio of 40% or more and less than 70%) | 2 (Herbicidal ratio of 20% or more and less than 40%) | 2 (Herbicidal ratio of 20% or more and less than 40%) | 3 (Herbicidal ratio of 40% or more and less than 70%) | – | – | – | – | – | – |
| Cc1nnc(NC(=O)c2ccc(C(F)(F)F)n3c(N4CC[S+]([O-])CC4)nnc23)o1 [1-119] | 2 (Herbicidal ratio of 20% or more and less than 40%) | 5 (Herbicidal ratio of 90% or more (almost completely withered)) | 4 (Herbicidal ratio of 70% or more and less than 90%) | 5 (Herbicidal ratio of 90% or more (almost completely withered)) | 5 (Herbicidal ratio of 90% or more (almost completely withered)) | 3 (Herbicidal ratio of 40% or more and less than 70%) | 5 (Herbicidal ratio of 90% or more (almost completely withered)) | 3 (Herbicidal ratio of 40% or more and less than 70%) | 4 (Herbicidal ratio of 70% or more and less than 90%) | 5 (Herbicidal ratio of 90% or more (almost completely withered)) | 3 (Herbicidal ratio of 40% or more and less than 70%) | 5 (Herbicidal ratio of 90% or more (almost completely withered)) | 4 (Herbicidal ratio of 70% or more and less than 90%) | 1 (Herbicidal ratio of 5% or more and less than 20%) | 0 (Herbicidal ratio of 5% or less (almost no effect)) | – | – | – | – | – | – |
| Cc1nnc(NC(=O)c2ccc(C(F)(F)F)n3c(SCc4ccccc4)nnc23)o1 [1-113] | 0 (Herbicidal ratio of 5% or less (almost no effect)) | 1 (Herbicidal ratio of 5% or more and less than 20%) | 0 (Herbicidal ratio of 5% or less (almost no effect)) | 1 (Herbicidal ratio of 5% or more and less than 20%) | 2 (Herbicidal ratio of 20% or more and less than 40%) | 0 (Herbicidal ratio of 5% or less (almost no effect)) | 5 (Herbicidal ratio of 90% or more (almost completely withered)) | 0 (Herbicidal ratio of 5% or less (almost no effect)) | 0 (Herbicidal ratio of 5% or less (almost no effect)) | 3 (Herbicidal ratio of 40% or more and less than 70%) | 0 (Herbicidal ratio of 5% or less (almost no effect)) | 3 (Herbicidal ratio of 40% or more and less than 70%) | 2 (Herbicidal ratio of 20% or more and less than 40%) | 0 (Herbicidal ratio of 5% or less (almost no effect)) | 0 (Herbicidal ratio of 5% or less (almost no effect)) | – | – | – | – | – | – |
| CC(C)Sc1nnc2c(C(=O)Nc3nnnn3C)ccc(C(F)(F)F)n12 [2-025] | – | – | – | – | – | – | – | – | – | – | – | – | 5 (Herbicidal ratio of 90% or more (almost completely withered)) | 4 (Herbicidal ratio of 70% or more and less than 90%) | 5 (Herbicidal ratio of 90% or more (almost completely withered)) | 3 (Herbicidal ratio of 40% or more and less than 70%) | 5 (Herbicidal ratio of 90% or more (almost completely withered)) | 4 (Herbicidal ratio of 70% or more and less than 90%) | 5 (Herbicidal ratio of 90% or more (almost completely withered)) | 5 (Herbicidal ratio of 90% or more (almost completely withered)) | I: herbicidal effect on Avena fatua [6]: 4 (Herbicidal ratio of 70% or more and less than 90%); O: herbicidal effect on Chenopodium album [7]: 5 (Herbicidal ratio of 90% or more (almost completely withered)); J: herbicidal effect on Alopecurus myosuroides [8]: 3 (Herbicidal ratio of 40% or more and less than 70%); G: herbicidal effect on Setaria viridis [9]: 5 (Herbicidal ratio of 90% or more (almost completely withered)); R: herbicidal effect on Veronica persica [10]: 5 (Herbicidal ratio of 90% or more (almost completely withered)); L: herbicidal effect on Apera spica-venti. [11]: 4 (Herbicidal ratio of 70% or more and less than 90%); N: herbicidal effect on Amaranthus retroflexus [12]: 5 (Herbicidal ratio of 90% or more (almost completely withered)) |
| CSc1nnc2c(C(=O)Nc3nnnn3C)ccc(C(F)(F)F)n12 [2-013] | – | – | – | – | – | – | – | – | – | – | – | – | 5 (Herbicidal ratio of 90% or more (almost completely withered)) | 3 (Herbicidal ratio of 40% or more and less than 70%) | 2 (Herbicidal ratio of 20% or more and less than 40%) | 3 (Herbicidal ratio of 40% or more and less than 70%) | 5 (Herbicidal ratio of 90% or more (almost completely withered)) | 4 (Herbicidal ratio of 70% or more and less than 90%) | 5 (Herbicidal ratio of 90% or more (almost completely withered)) | 5 (Herbicidal ratio of 90% or more (almost completely withered)) | I: herbicidal effect on Avena fatua [6]: 4 (Herbicidal ratio of 70% or more and less than 90%); O: herbicidal effect on Chenopodium album [7]: 5 (Herbicidal ratio of 90% or more (almost completely withered)); J: herbicidal effect on Alopecurus myosuroides [8]: 3 (Herbicidal ratio of 40% or more and less than 70%); G: herbicidal effect on Setaria viridis [9]: 5 (Herbicidal ratio of 90% or more (almost completely withered)); R: herbicidal effect on Veronica persica [10]: 4 (Herbicidal ratio of 70% or more and less than 90%); L: herbicidal effect on Apera spica-venti. [11]: 4 (Herbicidal ratio of 70% or more and less than 90%); N: herbicidal effect on Amaranthus retroflexus [12]: 5 (Herbicidal ratio of 90% or more (almost completely withered)) |
